Experimental data reported in ChEMBL document CHEMBL3588762, “A practical glycosyltransferase assay for the identification of new inhibitor chemotypes” (Medchemcomm, 2014).
Calls of active or inactive are those of the source. The rule behind the calls is not given here.

Legend:
[1] = target: T1, Alpha 1,4 galactosyltransferase (Neisseria meningitidis) (UniProt Q8KHJ3); assay: Inhibition of Neisseria meningitidis alpha-1,4-galactosyltransferase LgtC at 20% donor UDP-Gal turn over rates by inorganic phosphate release from UDP and malachite green dye based inorganic phosphate detection based assay
T1 sequence (whole entry): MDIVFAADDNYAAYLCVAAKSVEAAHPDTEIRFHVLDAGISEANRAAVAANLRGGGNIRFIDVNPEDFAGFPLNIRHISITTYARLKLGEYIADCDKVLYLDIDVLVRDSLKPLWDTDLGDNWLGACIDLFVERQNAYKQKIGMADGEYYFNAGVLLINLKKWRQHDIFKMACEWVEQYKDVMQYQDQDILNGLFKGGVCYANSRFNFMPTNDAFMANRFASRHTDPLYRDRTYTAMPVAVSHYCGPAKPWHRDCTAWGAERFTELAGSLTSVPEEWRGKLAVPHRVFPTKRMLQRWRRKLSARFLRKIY

[2] = target: T1, Alpha 1,4 galactosyltransferase (Neisseria meningitidis); assay: Inhibition of Neisseria meningitidis alpha-1,4-galactosyltransferase LgtC at 50% donor UDP-Gal turn over rates by inorganic phosphate release from UDP and malachite green dye based inorganic phosphate detection based assay
[3] = target: T1, Alpha 1,4 galactosyltransferase (Neisseria meningitidis); assay: Inhibition of Neisseria meningitidis alpha-1,4-galactosyltransferase LgtC at 90% donor UDP-Gal turn over rates by inorganic phosphate release from UDP and malachite green dye based inorganic phosphate detection based assay
[4] = target: T2, Beta-1,4-galactosyltransferase 1 (Bos taurus) (UniProt P08037); assay: Inhibition of bovine beta-1,4-GalT […] at 10% to 50 donor UDP-Gal turn over rates by inorganic phosphate release from UDP and malachite green dye based inorganic phosphate detection based assay
T2 sequence (whole entry): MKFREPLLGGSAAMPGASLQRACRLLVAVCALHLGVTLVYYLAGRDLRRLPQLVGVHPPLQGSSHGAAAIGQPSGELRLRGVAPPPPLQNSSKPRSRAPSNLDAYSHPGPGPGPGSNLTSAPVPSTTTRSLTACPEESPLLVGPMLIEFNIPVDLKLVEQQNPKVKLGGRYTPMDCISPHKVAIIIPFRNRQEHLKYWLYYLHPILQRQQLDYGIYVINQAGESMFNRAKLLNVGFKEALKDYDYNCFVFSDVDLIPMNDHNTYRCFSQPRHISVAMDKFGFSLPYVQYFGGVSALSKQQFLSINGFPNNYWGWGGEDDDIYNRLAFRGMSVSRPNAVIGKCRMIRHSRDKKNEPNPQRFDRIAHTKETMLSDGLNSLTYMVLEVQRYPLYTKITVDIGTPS

[5] = target: T3, Alpha 1,4 galactosyltransferase (Neisseria meningitidis, UniProt Q8KHJ3); assay: Inhibition of Neisseria meningitidis alpha-1,4-galactosyltransferase LgtC by inorganic phosphate release from UDP and malachite green dye based inorganic phosphate detection based assay
T3 sequence (Q8KHJ3 whole entry): T1 sequence (whole entry)

[6] = target: T1, Alpha 1,4 galactosyltransferase (Neisseria meningitidis); assay: Activity of Neisseria meningitidis alpha-1,4-galactosyltransferase LgtC assessed as compound turn over rates at 50 to 100 uM incubated for 20 mins by inorganic phosphate release and malachite green dye based inorganic phosphate detection based assay
[7] = target: Intestinal-type alkaline phosphatase (Bos taurus) (UniProt P19111); assay: Activity of calf intestinal phosphatase assessed as compound turn over rates by inorganic phosphate release and malachite green dye based inorganic phosphate detection based assay
Chain of Intestinal-type alkaline phosphatase (Bos taurus) (P19111 20-506 limits assumed): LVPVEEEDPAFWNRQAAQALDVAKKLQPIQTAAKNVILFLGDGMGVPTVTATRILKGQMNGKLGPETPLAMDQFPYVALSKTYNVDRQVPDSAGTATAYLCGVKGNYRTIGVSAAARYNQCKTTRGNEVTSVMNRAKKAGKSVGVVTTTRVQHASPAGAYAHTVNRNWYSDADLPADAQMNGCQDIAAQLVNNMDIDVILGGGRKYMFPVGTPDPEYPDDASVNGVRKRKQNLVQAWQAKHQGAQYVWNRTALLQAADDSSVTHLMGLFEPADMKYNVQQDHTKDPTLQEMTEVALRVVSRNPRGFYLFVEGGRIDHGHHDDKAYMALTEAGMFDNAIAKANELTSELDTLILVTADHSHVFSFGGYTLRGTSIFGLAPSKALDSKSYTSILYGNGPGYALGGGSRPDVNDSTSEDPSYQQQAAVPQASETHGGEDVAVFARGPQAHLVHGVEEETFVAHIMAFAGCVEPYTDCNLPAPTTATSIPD

[8] = target: T4, Beta-1,4-galactosyltransferase 1 (Bos taurus, UniProt P08037); assay: Inhibition of bovine beta-1,4-GalT […] at 29% donor UDP-Gal turn over rates by inorganic phosphate release from UDP and malachite green dye based inorganic phosphate detection based assay
T4 sequence (P08037 whole entry): T2 sequence (whole entry)

inhibition [1]	inhibition [2]	inhibition [3]	inhibition [4]	IC50 [5] [nM]	Activity [6]	Activity [7]	IC50 [8] [µM]	Structure (SMILES)
inactive	inactive	inactive	inactive	–	–	–	–	O=c1ccn([C@@H]2O[C@H](CO)[C@@H](O)[C@H]2O)c(=O)[nH]1
–	–	–	–	900	inactive	Active	9	O=Cc1ccc(-c2cn([C@@H]3O[C@H](COP(=O)(O)OP(=O)(O)O[C@H]4O[C@H](CO)[C@H](O)[C@H](O)[C@H]4O)[C@@H](O)[C@H]3O)c(=O)[nH]c2=O)s1
–	–	–	–	–	–	Active	–	O=c1ccn([C@@H]2O[C@H](COP(=O)(O)OP(=O)(O)O)[C@@H](O)[C@H]2O)c(=O)[nH]1
